For this experiment, the target named is Cannabinoid receptor 1 (Rattus norvegicus, UniProt P20272). Nature of the experiment: Displacement of [3H]CP-55940 binding to Cannabinoid receptor 1 in rat brain membranes. In kind it is cell membranes. A general note: Displacement assays read how much labelled ligand stays bound in the presence of the test substance.
Cannabinoid receptor 1, sequence (P20272 whole entry): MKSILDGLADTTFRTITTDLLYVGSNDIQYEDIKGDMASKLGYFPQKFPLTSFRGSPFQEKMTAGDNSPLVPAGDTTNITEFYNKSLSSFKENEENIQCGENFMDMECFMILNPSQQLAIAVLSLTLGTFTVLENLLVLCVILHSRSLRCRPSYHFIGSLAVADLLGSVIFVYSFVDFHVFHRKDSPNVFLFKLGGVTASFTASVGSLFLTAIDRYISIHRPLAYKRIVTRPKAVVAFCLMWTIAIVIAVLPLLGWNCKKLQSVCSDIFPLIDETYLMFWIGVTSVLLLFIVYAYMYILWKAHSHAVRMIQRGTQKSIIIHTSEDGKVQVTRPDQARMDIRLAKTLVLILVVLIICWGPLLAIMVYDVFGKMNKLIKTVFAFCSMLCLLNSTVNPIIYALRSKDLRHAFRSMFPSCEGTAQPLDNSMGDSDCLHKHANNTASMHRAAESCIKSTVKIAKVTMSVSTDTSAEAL

The compound `CCCCCCC(C)(C)c1cc(O)c2c(c1)OC(C)(C)[C@@H]1CC=C(CO)C[C@@H]21` came in with a Ki of 0.23 nM.
Then `CCCCCCC(C)(C)c1cc(O)c2c(c1)OC(C)(C)[C@H]1CC=C(CO)C[C@H]21` [DEXANABINOL], with 360 nM; and `CCCCCCC(C)(C)c1ccc([C@H]2C[C@@H](O)C[C@H]3CC[C@@H](CO)C[C@@H]32)c(O)c1`, with 0.11 nM.

One may read the Ki as a dissociation constant, usually derived from enzyme kinetics or from competition with a known ligand. A lower Ki goes with tighter binding.

Values taken from ChEMBL document CHEMBL1131589 (J Med Chem, 1998).
